In patent US6737383B1, “Herbicidal oxadiazolidines” (priority 1999, dated 2004):

What was measured:
wild oat = assay: Test B pre/postemergence wild oat; assay type: in vivo, Avena fatua
In short: (§1)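 Response is a visual 0-to-10 score relative to untreated plants, where 0 means no effect and 10 means complete control, taken twelve to sixteen days after application. Treatments went onto soil at planting and onto foliage of 1- to 4-leaf plants, using a surfactant-containing non-phytotoxic solvent.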

rice = assay: Test B flood test rice; assay type: in vivo, Oryza sativa
In short: (§2)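 Each value is a visual injury score relative to controls, with 10 meaning complete control and 0 no effect. Evaluation took place twelve to sixteen days after the 2-leaf-stage plants were treated and kept in the greenhouse.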

purple nutsedge = assay: Test B pre/postemergence purple nutsedge; assay type: in vivo, Cyperus rotundus
In short: as §1

surinam grass = assay: Test B pre/postemergence surinam grass; assay type: in vivo, Brachiaria decumbens
In short: as §1

blackgrass = assay: Test B pre/postemergence blackgrass; assay type: in vivo, Alopecurus myosuroides
In short: as §1

crabgrass = assay: Test B pre/postemergence crabgrass; assay type: in vivo, Digitaria sanguinalis
In short: as §1

corn = assay: Test B pre/postemergence corn; assay type: in vivo, Zea mays
In short: as §1

sugar beet = assay: Test B pre/postemergence sugar beet; assay type: in vivo, Beta vulgaris
In short: as §1

cocklebur = assay: Test B pre/postemergence cocklebur; assay type: in vivo, Xanthium strumarium
In short: as §1

wheat = assay: Test B pre/postemergence wheat; assay type: in vivo, Triticum aestivum
In short: as §1

bamyardgrass = assay: Test B flood test barnyardgrass; assay type: in vivo, Echinochloa crus-galli
In short: as §2

soybean = assay: Test B pre/postemergence soybean; assay type: in vivo, Glycine max
In short: as §1

morningglory = assay: Test B pre/postemergence morningglory; assay type: in vivo, Ipomoea hederacea
In short: as §1

giant foxtail = assay: Test B pre/postemergence giant foxtail; assay type: in vivo, Setaria faberii
In short: as §1

smallflower flatsedge = assay: Test B flood test smallflower flatsedge; assay type: in vivo, Cyperus difformis
In short: as §2

velvetleaf = assay: Test B pre/postemergence velvetleaf; assay type: in vivo, Abutilon theophrasti
In short: as §1

pigweed = assay: Test B pre/postemergence pigweed; assay type: in vivo, Amaranthus retroflexus
In short: as §1

duck salad = assay: Test B flood test duck salad; assay type: in vivo, Heteranthera limosa
In short: as §2

bedstraw = assay: Test B pre/postemergence bedstraw; assay type: in vivo, Galium aparine
In short: as §1

rape = assay: Test B pre/postemergence rape; assay type: in vivo, Brassica napus
In short: as §1

[1] = Preemergence, Rate 62 g/ha, scale of 0 to 10 where 0 is no effect and 10 is complete control
[2] = Preemergence, Rate 250 g/ha, scale of 0 to 10 where 0 is no effect and 10 is complete control
[3] = Preemergence, Rate 500 g/ha, scale of 0 to 10 where 0 is no effect and 10 is complete control
[4] = Rate 125 g/ha, Preemergence, scale of 0 to 10 where 0 is no effect and 10 is complete control
[5] = Rate 500 g/ha, Postemergence, scale 0 to 10, 0 no effect, 10 complete control
[6] = Rate 62 g/ha, headed Pre-emergence (flood test species), scale 0 to 10 (0 no effect, 10 complete control)
[7] = Rate 125 g/ha, Pre-emergence, flood test species, scale 0 to 10 where 0 is no effect and 10 is complete control
[8] = Rate 250 g/ha, Pre-emergence, flood-test species, scale 0 to 10, 0 is no effect, 10 is complete control
[9] = Rate 500 g/ha, Pre-emergence, flood test species, scale 0 to 10 (0 no effect, 10 complete control)
[10] = Rate 62 g/ha, Postemergence, scale of 0 to 10 where 0 is no effect and 10 is complete control
[11] = Rate 125 g/ha, Postemergence, scale 0 to 10

Compound: CC(C)N(C(=O)n1oc(=O)n(CC(=O)OC(C)(C)C)c1=O)c1ccc(F)cc1 [Compound 265]
- Wild oats plant response rating (wild oat; [1]): 0
- Wild oats plant response rating (wild oat; [2]): 2
- Plant response rating, Wild oats (wild oat; [3]): 5
- Wild oats plant response rating (wild oat; [4]): 0
- Wild oats plant response rating (wild oat; [5]): 0
- Rice plant response rating (rice; [6]): 0
- Rice plant response rating (rice; [7]): 0
- Rice plant response rating (rice; [8]): 0
- Rice plant response rating (rice; [9]): 0
- Nutsedge plant response rating (purple nutsedge; [1]): 0
- Nutsedge plant response rating (purple nutsedge; [2]): 0
- Plant response rating, Nutsedge (purple nutsedge; [3]): 0
- Plant response rating (0 to 10; 0 is no effect, 10 is complete control), Nutsedge (purple nutsedge; Rate 250 g/ha, Postemergence): 0
- Nutsedge plant response rating (purple nutsedge; [5]): 0
- B. signalgrass plant response rating (surinam grass; [1]): 0
- B. signalgrass plant response rating (surinam grass; [2]): 0
- Plant response rating, B. signalgrass (surinam grass; [3]): 4
- B. signalgrass plant response rating (surinam grass; [10]): 0
- B. signalgrass plant response rating (surinam grass; Rate 125 g/ha, Postemergence, scale 0 (no effect) to 10 (complete control)): 0
- B. signalgrass plant response rating (surinam grass; [4]): 0
- Plant response rating (0 to 10; 0 is no effect, 10 is complete control), B. signalgrass (surinam grass; Rate 250 g/ha, Postemergence): 0
- B. signalgrass plant response rating (surinam grass; [5]): 0
- Blackgrass plant response rating (blackgrass; [1]): 0
- Blackgrass plant response rating (blackgrass; [2]): 0
- Blackgrass plant response rating (blackgrass; [10]): 4
- Blackgrass plant response rating (blackgrass; [11]): 4
- Plant response rating (0 to 10; 0 is no effect, 10 is complete control), Blackgrass (blackgrass; Rate 250 g/ha, Postemergence): 5
- Blackgrass plant response rating (blackgrass; [5]): 7
- Crabgrass plant response rating (crabgrass; [1]): 1
- Crabgrass plant response rating (crabgrass; [2]): 2
- Plant response rating, Crabgrass (crabgrass; [3]): 6
- Crabgrass plant response rating (crabgrass; [4]): 2
- Plant response rating (0 to 10; 0 is no effect, 10 is complete control), Crabgrass (crabgrass; Rate 250 g/ha, Postemergence): 2
- Crabgrass plant response rating (crabgrass; [5]): 3
- Corn plant response rating (corn; [1]): 0
- Corn plant response rating (corn; [2]): 0
- Plant response rating, Corn (corn; [3]): 0
- Corn plant response rating (corn; [10]): 0
- Corn plant response rating (corn; [11]): 0
- Corn plant response rating (corn; [4]): 0
- Plant response rating (0 to 10; 0 is no effect, 10 is complete control), Corn (corn; Rate 250 g/ha, Postemergence): 0
- Corn plant response rating (corn; [5]): 0
- Sugarbeets plant response rating (sugar beet; [1]): 0
- Sugarbeets plant response rating (sugar beet; [2]): 0
- Plant response rating, Sugarbeets (sugar beet; [3]): 0
- Sugarbeets plant response rating (sugar beet; [4]): 0
- Sugarbeets plant response rating (sugar beet; [5]): 3
- Cocklebur plant response rating (cocklebur; [1]): 0
- Cocklebur plant response rating (cocklebur; [2]): 0
- Cocklebur plant response rating (cocklebur; [10]): 0
- Cocklebur plant response rating (cocklebur; [11]): 0
- Cocklebur plant response rating (cocklebur; [4]): 0
- Plant response rating (0 to 10; 0 is no effect, 10 is complete control), Cocklebur (cocklebur; Rate 250 g/ha, Postemergence): 0
- Cocklebur plant response rating (cocklebur; [5]): 0
- Wheat plant response rating (wheat; [1]): 0
- Wheat plant response rating (wheat; [2]): 0
- Plant response rating, Wheat (wheat; [3]): 1
- Wheat plant response rating (wheat; [4]): 0
- Wheat plant response rating (wheat; [5]): 0
- Barnyardgrass plant response rating (bamyardgrass; [6]): 0
- Barnyardgrass plant response rating (bamyardgrass; [7]): 0
- Barnyardgrass plant response rating (bamyardgrass; [8]): 0
- Barnyardgrass plant response rating (bamyardgrass; [9]): 0
- Soybean plant response rating (soybean; [1]): 0
- Soybean plant response rating (soybean; [2]): 0
- Plant response rating, Soybean (soybean; [3]): 0
- Soybean plant response rating (soybean; [4]): 0
- Soybean plant response rating (soybean; [5]): 4
- Morningglory plant response rating (morningglory; [1]): 0
- Morningglory plant response rating (morningglory; [2]): 0
- Plant response rating, Morningglory (morningglory; [3]): 0
- Morningglory plant response rating (morningglory; [4]): 0
- Plant response rating (0 to 10; 0 is no effect, 10 is complete control), Morningglory (morningglory; Rate 250 g/ha, Postemergence): 6
- Morningglory plant response rating (morningglory; [5]): 8
- Giant foxtail plant response rating (giant foxtail; [1]): 6
- Giant foxtail plant response rating (giant foxtail; [2]): 8
- Plant response rating, Giant foxtail (giant foxtail; [3]): 10
- Giant foxtail plant response rating (giant foxtail; [4]): 8
- Plant response rating (0 to 10; 0 is no effect, 10 is complete control), Giant foxtail (giant foxtail; Rate 250 g/ha, Postemergence): 2
- Giant foxtail plant response rating (giant foxtail; [5]): 2
- S. Flatsedge plant response rating (smallflower flatsedge; [6]): 0
- S. Flatsedge plant response rating (smallflower flatsedge; [7]): 0
- S. Flatsedge plant response rating (smallflower flatsedge; [8]): 0
- S. Flatsedge plant response rating (smallflower flatsedge; [9]): 0
- Velvetleaf plant response rating (velvetleaf; [1]): 0
- Velvetleaf plant response rating (velvetleaf; [2]): 0
- Plant response rating, Velvetleaf (velvetleaf; [3]): 0
- Velvetleaf plant response rating (velvetleaf; [4]): 0
- Velvetleaf plant response rating (velvetleaf; [5]): 3
- Redroot pigweed plant response rating (pigweed; [1]): 0
- Redroot pigweed plant response rating (pigweed; [2]): 0
- Plant response rating, Redroot pigweed (pigweed; [3]): 0
- Redroot pigweed plant response rating (pigweed; [4]): 0
- Plant response rating (0 to 10; 0 is no effect, 10 is complete control), Redroot pigweed (pigweed; Rate 250 g/ha, Postemergence): 3
- Redroot pigweed plant response rating (pigweed; [5]): 4
- Ducksalad plant response rating (duck salad; [6]): 0
- Ducksalad plant response rating (duck salad; [7]): 0
- Ducksalad plant response rating (duck salad; [8]): 0
- Ducksalad plant response rating (duck salad; [9]): 0
- Bedstraw plant response rating (bedstraw; [1]): 0
- Bedstraw plant response rating (bedstraw; [2]): 0
- Plant response rating, Bedstraw (bedstraw; [3]): 0
- Bedstraw plant response rating (bedstraw; [10]): 0
- Bedstraw plant response rating (bedstraw; [11]): 2
- Bedstraw plant response rating (bedstraw; [4]): 0
- Plant response rating (0 to 10; 0 is no effect, 10 is complete control), Bedstraw (bedstraw; Rate 250 g/ha, Postemergence): 3
- Bedstraw plant response rating (bedstraw; [5]): 8
- Rape plant response rating (rape; [1]): 0
- Rape plant response rating (rape; [2]): 0
- Plant response rating, Rape (rape; [3]): 0
- Rape plant response rating (rape; [4]): 0
- Plant response rating (0 to 10; 0 is no effect, 10 is complete control), Rape (rape; Rate 250 g/ha, Postemergence): 1
- Rape plant response rating (rape; [5]): 3
